Where a name gives a salt, the structure may show the parent alone.
Target: T1, recombinant guanylate cyclase reporter cell line (Rattus norvegicus, UniProt P19686+P20595)
T1 construct: expressed in transfected cells
T1 sequence (P19686 1-690): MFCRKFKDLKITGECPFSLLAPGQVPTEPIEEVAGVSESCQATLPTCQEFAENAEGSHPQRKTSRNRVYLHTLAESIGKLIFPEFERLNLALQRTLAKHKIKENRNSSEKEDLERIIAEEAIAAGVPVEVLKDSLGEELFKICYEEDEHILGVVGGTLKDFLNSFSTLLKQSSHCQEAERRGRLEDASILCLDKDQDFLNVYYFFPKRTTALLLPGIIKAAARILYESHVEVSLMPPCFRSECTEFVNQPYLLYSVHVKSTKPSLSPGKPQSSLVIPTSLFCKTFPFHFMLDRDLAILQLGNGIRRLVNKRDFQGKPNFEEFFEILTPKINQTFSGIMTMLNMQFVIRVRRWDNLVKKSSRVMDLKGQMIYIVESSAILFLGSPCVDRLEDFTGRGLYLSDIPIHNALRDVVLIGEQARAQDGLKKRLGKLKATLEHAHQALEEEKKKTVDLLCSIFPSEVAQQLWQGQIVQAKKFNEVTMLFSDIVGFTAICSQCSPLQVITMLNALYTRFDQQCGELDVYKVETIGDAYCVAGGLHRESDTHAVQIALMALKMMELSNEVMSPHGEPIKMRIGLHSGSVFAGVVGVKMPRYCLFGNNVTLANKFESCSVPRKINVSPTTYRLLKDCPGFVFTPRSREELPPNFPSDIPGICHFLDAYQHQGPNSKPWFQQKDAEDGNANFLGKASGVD
T1 sequence (P20595 1-619): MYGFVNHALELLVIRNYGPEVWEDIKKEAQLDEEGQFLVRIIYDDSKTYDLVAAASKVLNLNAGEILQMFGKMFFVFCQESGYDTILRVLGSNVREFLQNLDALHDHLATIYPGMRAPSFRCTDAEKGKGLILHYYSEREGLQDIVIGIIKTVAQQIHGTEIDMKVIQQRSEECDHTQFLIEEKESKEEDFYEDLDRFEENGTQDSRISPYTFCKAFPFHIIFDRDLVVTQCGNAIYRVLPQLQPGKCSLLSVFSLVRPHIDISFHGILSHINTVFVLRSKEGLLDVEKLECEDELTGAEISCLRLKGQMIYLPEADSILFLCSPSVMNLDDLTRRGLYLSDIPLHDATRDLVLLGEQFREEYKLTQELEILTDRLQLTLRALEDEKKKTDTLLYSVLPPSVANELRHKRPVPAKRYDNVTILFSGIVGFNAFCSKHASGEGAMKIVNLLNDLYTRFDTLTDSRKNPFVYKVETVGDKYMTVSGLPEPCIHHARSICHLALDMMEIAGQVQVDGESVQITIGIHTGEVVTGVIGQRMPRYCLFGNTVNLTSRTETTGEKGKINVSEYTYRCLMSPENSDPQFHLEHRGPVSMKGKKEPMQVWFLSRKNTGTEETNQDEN
Assay: Effect on a recombinant guanylate cyclase reporter cell line (B-2)
Assay type: cell-based
Settings: in some cases mean values for individual determinations
Procedure: B-2. Effect on a Recombinant Guanylate Cyclase Reporter Cell Line
The cellular effect of the inventive compounds is determined using a recombinant guanylate cyclase reporter cell line, as described in F. Wunder et al., Anal. Biochem. 339, 104-112 (2005).
Representative MEC values (MEC=minimum effective concentration) for the inventive compounds are shown in the table below (in some cases as mean values for individual determinations): […]

Row | SMILES | MEC (minimum effective concentration) [µM]
1 | CCCC(C)(N)CNC(=O)c1c(C)nn2c(OCc3c(F)cccc3F)cc(C)cc12 (single isomer, unassigned) [Example 39, ent-N-(2-Amino-2-methylpentyl)-7-[(2,6-difluorobenzyl)oxy]-2,5-dimethylpyrazolo[1,5-a]pyridine-3-carboxamide] | 0.3
2 | Cc1cc(OCc2c(F)cccc2F)n2nc(C)c(C(=O)NC(CN)c3ccc(F)c(F)c3)c2c1 (stereo not drawn) [Example 133, ent-N-[2-Amino-1-(3,4-difluorophenyl)ethyl]-7-[(2,6-difluorobenzyl)oxy]-2,5-dimethylpyrazolo[1,5-a]pyridine-3-carboxamide] | 0.3
3 | Cc1cc(OCc2c(F)cccc2F)n2nc(C)c(C(=O)NN3CCOCC3)c2c1 [Example 135, 7-[(2,6-Difluorobenzyl)oxy]-2,5-dimethyl-N-(morpholin-4-yl)pyrazolo[1,5-a]pyridine-3-carboxamide] | 3.0
4 | CCCC[C@H](CO)NC(=O)c1c(C)nn2c(OCc3c(F)cccc3F)cc(C)cc12 [Example 144, 7-[(2,6-Difluorobenzyl)oxy]-N-[(2R)-1-hydroxyhexan-2-yl]-2,5-dimethylpyrazolo[1,5-a]pyridine-3-carboxamide] | 0.1
5 | Cc1cc(OCc2c(F)cccc2F)n2nc(C)c(C(=O)N[C@H]3CCNC3=O)c2c1 [Example 149, 7-[(2,6-Difluorobenzyl)oxy]-2,5-dimethyl-N-[(3S)-2-oxopyrrolidin-3-yl]pyrazolo[1,5-a]pyridine-3-carboxamide] | 1.0
6 | Cc1cc(OCc2c(F)cccc2F)n2nc(C)c(C(=O)NCCCS(=O)(=O)NC3CC3)c2c1 [Example 151, N-[3-(Cyclopropylsulphamoyl)propyl]-7-[(2,6-difluorobenzyl)oxy]-2,5-dimethylpyrazolo[1,5-a]pyridine-3-carboxamide] | 3.0
7 | COC(=O)C12CCC(NC(=O)c3c(C)nn4c(OCc5c(F)cccc5F)cc(C)cc34)(CC1)CC2 [Example 152, methyl 4-[({7-[(2,6-difluorobenzyl)oxy]-2,5-dimethylpyrazolo[1,5-a]pyridin-3-yl}carbonyl)amino]bicyclo[2.2.2]octane-1-carboxylate] | 0.3
8 | Cc1cc(OCc2c(F)cccc2F)n2nc(C)c(C(=O)NC34CCC(C(=O)O)(CC3)CC4)c2c1 [Example 153, 4-[({7-[(2,6-Difluorobenzyl)oxy]-2,5-dimethylpyrazolo[1,5-a]pyridin-3-yl}carbonyl)amino]bicyclo[2.2.2]octane-1-carboxylic Acid] | 3.0
9 | Cc1cc(OCc2c(F)cccc2F)n2nc(C)c(C(=O)NC3CCNC(C(F)(F)F)C3)c2c1 (stereo not drawn) [Example 154, 7-[(2,6-Difluorobenzyl)oxy]-2,5-dimethyl-N-[2-(trifluoromethyl)piperidin-4-yl]pyrazolo[1,5-a]pyridine-3-carboxamide] | 1.0
10 | COC(=O)C12CC3CC(CC(CNC(=O)c4c(C)nn5c(OCc6c(F)cccc6F)cc(C)cc45)(C3)C1)C2 [Example 155, Methyl 3-{[({7-[(2,6-difluorobenzyl)oxy]-2,5-dimethylpyrazolo[1,5-a]pyridin-3-yl}carbonyl)amino]methyl}adamantane-1-carboxylate] | 1.0
11 | Cc1cc(OCc2c(F)cccc2F)n2nc(C)c(C(=O)NN3CCN(C)CC3)c2c1 [Example 173, 7-[(2,6-Difluorobenzyl)oxy]-2,5-dimethyl-N-(4-methylpiperazin-1-yl)pyrazolo[1,5-a]pyridine-3-carboxamide] | 1.0
12 | Cc1cc(OCc2c(F)cccc2F)n2nc(C)c(C(=O)NNC(=O)CN3CCCCC3)c2c1 [Example 174, 7-[(2,6-Difluorobenzyl)oxy]-2,5-dimethyl-N′-(piperidin-1-ylacetyl)pyrazolo[1,5-a]pyridine-3-carbohydrazide] | 1.0
13 | Cc1cc(OCc2c(F)cccc2F)n2nc(C)c(C(=O)NNC(=O)CN3CCCC3=O)c2c1 [Example 175, 7-[(2,6-Difluorobenzyl)oxy]-2,5-dimethyl-N′-[(2-oxopyrrolidin-1-yl)acetyl]pyrazolo[1,5-a]pyridine-3-carbohydrazide trifluoroacetate] | 10
14 | Cc1cc(OCc2c(F)cccc2F)n2nc(C)c(C(=O)N[C@@H](CO)c3cccs3)c2c1 [Example 176, 7-[(2,6-Difluorobenzyl)oxy]-N-[(1S)-2-hydroxy-1-(2-thienyl)ethyl]-2,5-dimethylpyrazolo[1,5-a]pyridine-3-carboxamide] | 0.3
15 | Cc1cc(OCc2c(F)cccc2F)n2nc(C)c(C(=O)N[C@@H](CO)c3ccc(C)o3)c2c1 [Example 177, 7-[(2,6-Difluorobenzyl)oxy]-N-[(1S)-2-hydroxy-1-(5-methy1-2-furyl)ethyl]-2,5-dimethylpyrazolo[1,5-a]pyridine-3-carboxamide] | 1.0
16 | Cc1cc(OCc2c(F)cccc2F)n2nc(C)c(C(=O)N[C@H](CO)c3ccc(C)o3)c2c1 [Example 178, 7-[(2,6-Difluorobenzyl)oxy]-N-[(1R)-2-hydroxy-1-(5-methyl-2-furyl)ethyl]-2,5-dimethylpyrazolo[1,5-a]pyridine-3-carboxamide] | 1.0
17 | Cc1cc(OCc2c(F)cccc2F)n2nc(C)c(C(=O)N[C@@H](CO)c3nnc([C@@H](N)C(C)C)o3)c2c1 [Example 179, N-[(1S)-1-{5-[(1S)-1-Amino-2-methylpropyl]-1,3,4-oxadiazol-2-yl}-2-hydroxyethyl]-7-[(2,6-difluorobenzyl)oxy]-2,5-dimethylpyrazolo[1,5-a]pyridine-3-carboxamide] | 10

Test system: not listed separately
Assay: Pharmacokinetic parameters following intravenous administration in rats (B-6)
Assay type: in vivo, male Wistar rats
Settings: not given
Description: • Klaus Witte, Kai Hu, Johanna Swiatek, Claudia Müssig, Georg Ertl and Bjorn Lemmer: Experimental heart failure in rats: effects on cardiovascular circadian rhythms and on myocardial β-adrenergic signaling. Cardiovasc Res 47 (2): […], 2000; Kozo Okamoto: Spontaneous hypertension in rats. Int Rev Exp Pathol 7: 227-270, 1969; Maarten van den Buuse: Circadian Rhythms of Blood Pressure, Heart Rate, and Locomotor Activity in Spontaneously Hypertensive Rats as Measured With Radio-Telemetry. Physiology & Behavior 55(4): 783-787, 1994 B-6. Determination of Pharmacokinetic Parameters Following Intravenous and Oral Administration
The pharmacokinetic parameters of the inventive compounds are determined in male CD-1 mice, male Wistar rats and female beagles. Intravenous administration in the case of mice and rats is effected by means of a species-specific plasma/DMSO formulation, and in the case of dogs by means of a water/PEG400/ethanol formulation. In all species, oral administration of the dissolved substance is performed via gavage, based on a water/PEG400/ethanol formulation. The removal of blood from rats is simplified by inserting a silicone catheter into the right Vena jugularis externa prior to substance administration. The operation is effected at least one day prior to the experiment with isofluran anaesthesia and administration of an analgesic (atropine/rimadyl (3/1) 0.1 ml s.c.). The blood is taken (generally more than 10 time points) within a time window including terminal time points of at least 24 to a maximum of 72 hours after substance administration. The blood is removed into heparinized tubes. The blood plasma is then obtained by centrifugation; if required, it can be stored at −20° C. until further processing.
An internal standard (which may also be a chemically unrelated substance) is added to the samples of the inventive compounds, calibration samples and qualifiers, and there follows protein precipitation by means of acetonitrile in excess. Addition of a buffer solution matched to the LC conditions, and subsequent vortexing, is followed by centrifugation at 1000 g. The supernatant is analysed by means of LC-MS/MS using C18 reversed-phase columns and variable mobile phase mixtures. The substances are quantified via the peak heights or areas from extracted ion chromatograms of specific selected ion monitoring experiments.
The plasma concentration/time plots determined are used to calculate the pharmacokinetic parameters such as AUC, Cmax, t1/2 (terminal half-life), F (bioavailability), MRT (mean residence time) and CL (clearance), by means of a validated pharmacokinetic calculation program.
Since the substance quantification is performed in plasma, it is necessary to determine the blood/plasma distribution of the substance in order to be able to adjust the pharmacokinetic parameters correspondingly. For this purpose, a defined amount of substance is incubated in heparinized whole blood of the species in question in a rocking roller mixer for 20 min. After centrifugation at 1000 g, the plasma concentration is measured (by means of LC-MS/MS; see above) and determined by calculating the ratio of the Cblood/Cplasma value.

Row | SMILES | AUCnormal [kg·h/L] | CLblood [mL/min/kg]
18 | CCCC(C)(N)CNC(=O)c1c(C)nn2c(OCc3c(F)cccc3F)cc(C)cc12 (single isomer, unassigned) [Example 39, ent-N-(2-Amino-2-methylpentyl)-7-[(2,6-difluorobenzyl)oxy]-2,5-dimethylpyrazolo[1,5-a]pyridine-3-carboxamide] | 0.53 | 41

Same assay, conditions: male, Wistar, rat, plasma, mean residence time

Row | SMILES | MRT [h]
19 | CCCC(C)(N)CNC(=O)c1c(C)nn2c(OCc3c(F)cccc3F)cc(C)cc12 (single isomer, unassigned) [Example 39, ent-N-(2-Amino-2-methylpentyl)-7-[(2,6-difluorobenzyl)oxy]-2,5-dimethylpyrazolo[1,5-a]pyridine-3-carboxamide] | 7.8

Same assay, conditions: male, Wistar, rat, plasma, terminal half-life

Row | SMILES | half-life [h]
20 | CCCC(C)(N)CNC(=O)c1c(C)nn2c(OCc3c(F)cccc3F)cc(C)cc12 (single isomer, unassigned) [Example 39, ent-N-(2-Amino-2-methylpentyl)-7-[(2,6-difluorobenzyl)oxy]-2,5-dimethylpyrazolo[1,5-a]pyridine-3-carboxamide] | 6.2

Reference: patent publication US9422285B2, “Substituted pyrazolo[1,5-A]-pyridine-3-carboxamides and use thereof” (Bayer Pharma Aktiengesellschaft, priority 2014, dated 2016)
